Data on 1 compound can be found in article PMC11500415, “Chemical inhibition of stomatal differentiation by perturbation of the master-regulatory bHLH heterodimer via an ACT-Like domain” (Nature Communications, 2024).

“And” between values parts separate entries of the source, which are not always exact repeats. Equal entries are not always repeated.

Format in all cases: cell-based
The target in one assay is T1, SCRM-MUTE heterodimer (Arabidopsis thaliana, UniProt Q9M8K6).
T1 construct: expressed in transfected cells; host or cells: yeast strain AH109
T1 sequence (Q9M8K6 1-202): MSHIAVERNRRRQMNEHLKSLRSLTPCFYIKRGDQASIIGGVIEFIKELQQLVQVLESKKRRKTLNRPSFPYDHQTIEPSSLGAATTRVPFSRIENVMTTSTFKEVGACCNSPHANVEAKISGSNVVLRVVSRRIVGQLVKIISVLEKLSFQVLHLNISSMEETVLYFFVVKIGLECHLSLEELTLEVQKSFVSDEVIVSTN
As to the kind of experiment: Y2H growth and quantitative α-galactosidase assay. The settings on record: yeast MUTE+SCRM, media -WLH, replicates #1-#3. As for the experimental part:
(§1) Y2H assays were performed using the Matchmaker^TM Two-Hybrid System (Clontech). Bait (pGBKT7) and prey (pGADT7) constructs were co-transformed into the yeast strain AH109 using Frozen-EZ Yeast Transformation II Kit (Zymo Research, T2001). The resulting transformants were spotted on SD ( − Leu, −Trp) and SD ( − Trp, −Leu, −His) selection media containing different concentrations of 3-amino-1,2,4-triazole (Sigma, A8056) as previously reported. Quantitative α-galactosidase assay was also performed according to manufactural instruction (Clontech). Briefly, the transformants were incubated in 2 ml SD medium with 0, 10, 50 100 μM Stomidazolone (3) or SIM3* (7) with rotary shake (220 rpm) at 30 °C overnight. The cultured media containing yeast were transferred to microtubes and centrifuged to obtain the supernatant. The colorimetric assay was performed by incubating 8 μL of supernatant with 24 μL Assay Buffer that contains 0.5 M sodium acetate (pH 4.5) (Nakalai tesque, 31137-25): 100 mM p-nitrophenyl α-D-Galactopyranoside Solution (Sigma N0877) = 2:1 (v/v) at 30 °C for 60 min, then terminated by adding 960 μL 1X Stop Solution (0.1 M sodium carbonate, Fujifilm Wako 195-01582). After OD410 was recorded, α-galactosidase units were calculated according to the protocol (Clontech, P3024-1).

A further assay deals with T2, SCRM-FAMA heterodimer (Arabidopsis thaliana, UniProt Q56YJ8).
T2 construct: truncated SPCH and FAMA proteins lacking their N-terminal domain were used in yeast; expressed in transfected cells; host or cells: yeast strain AH109
T2 sequence (Q56YJ8 190-414, one chain of several): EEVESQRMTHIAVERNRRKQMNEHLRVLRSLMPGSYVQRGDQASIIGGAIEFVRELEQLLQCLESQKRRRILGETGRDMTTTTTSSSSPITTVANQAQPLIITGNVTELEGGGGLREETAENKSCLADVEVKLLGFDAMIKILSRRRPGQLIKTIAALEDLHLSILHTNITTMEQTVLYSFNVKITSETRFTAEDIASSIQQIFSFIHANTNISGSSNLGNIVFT
As to the kind of experiment: Y2H growth and quantitative α-galactosidase assay. The following applies: yeast FAMA∆N+SCRM, media -WLH, replicates #1-#3. As for the experimental part: as §1

The next assay has as its target T3, SCRM-SPCH heterodimer (Arabidopsis thaliana, UniProt Q700C7).
T3 construct: truncated SPCH and FAMA proteins lacking their N-terminal domain were used in yeast; expressed in transfected cells; host or cells: yeast strain AH109
T3 sequence (Q700C7 98-364 limits assumed): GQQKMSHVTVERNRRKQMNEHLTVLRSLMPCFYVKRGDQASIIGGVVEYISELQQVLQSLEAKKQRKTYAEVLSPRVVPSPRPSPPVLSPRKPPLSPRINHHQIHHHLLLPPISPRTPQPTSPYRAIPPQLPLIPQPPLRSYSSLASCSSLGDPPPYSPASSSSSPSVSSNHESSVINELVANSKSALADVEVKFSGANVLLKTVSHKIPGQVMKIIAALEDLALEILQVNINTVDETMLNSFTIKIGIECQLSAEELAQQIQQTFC
As to the kind of experiment: Y2H growth and quantitative α-galactosidase assay. The following applies: yeast SPCH∆N+SCRM, media -WLH, replicates #1-#3. The procedure:
as §1

The next assay deals with T4, DB+SCRM (control yeast) (Arabidopsis thaliana, UniProt Q9LSE2).
T4 construct: expressed in transfected cells; host or cells: yeast strain AH109
T4 sequence (Q9LSE2 1-494): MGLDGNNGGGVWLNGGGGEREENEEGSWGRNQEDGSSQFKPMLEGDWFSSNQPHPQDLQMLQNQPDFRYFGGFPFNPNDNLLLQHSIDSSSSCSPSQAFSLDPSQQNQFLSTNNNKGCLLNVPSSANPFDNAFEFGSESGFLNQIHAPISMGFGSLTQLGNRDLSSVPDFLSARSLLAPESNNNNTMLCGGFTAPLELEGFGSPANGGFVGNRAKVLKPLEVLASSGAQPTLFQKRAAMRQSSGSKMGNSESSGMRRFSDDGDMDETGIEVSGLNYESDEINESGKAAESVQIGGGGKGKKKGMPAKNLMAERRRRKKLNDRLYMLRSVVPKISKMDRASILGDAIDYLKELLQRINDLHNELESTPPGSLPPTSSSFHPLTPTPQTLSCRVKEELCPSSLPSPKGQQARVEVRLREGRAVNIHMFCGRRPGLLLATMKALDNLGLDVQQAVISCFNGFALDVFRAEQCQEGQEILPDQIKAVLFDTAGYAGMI
As to the kind of experiment: Y2H quantitative α-galactosidase assay, control yeast DB+SCRM. The following applies: media -WL, replicates #1-#3.

The target in a further assay is T5, MUTE+AD (control yeast) (Arabidopsis thaliana, UniProt Q9M8K6).
T5 construct: expressed in transfected cells; host or cells: yeast strain AH109
T5 sequence (Q9M8K6 1-202): T1 sequence (Q9M8K6 1-202)
Kind of assay: Y2H quantitative α-galactosidase assay, control yeast MUTE+AD. The following applies: media -WL, replicates #1-#3. The source says: Supplement 41467_2024_53214_MOESM7_ESM.xlsx, sheet "Fig.S5" | column: Meristemoid

Take `Cc1nc(-c2ccccc2)c(NS(=O)(=O)c2ccccc2)o1` [SIM3*]: the a-galactosidase at SCRM-MUTE heterodimer (10 µM) was 6.318 milliunits /(ml x cell) and 6.221 milliunits /(ml x cell) and 6.24 milliunits /(ml x cell); at SCRM-MUTE heterodimer (50 µM), 7.176 milliunits /(ml x cell) and 6.898 milliunits /(ml x cell) and 6.187 milliunits /(ml x cell); on SCRM-MUTE heterodimer (100 µM), 6.801 milliunits /(ml x cell) and 6.285 milliunits /(ml x cell) and 6.027 milliunits /(ml x cell); at SCRM-FAMA heterodimer (10 µM), 9.596 milliunits /(ml x cell) and 8.612 milliunits /(ml x cell) and 10.2528 milliunits /(ml x cell); at SCRM-FAMA heterodimer (50 µM) it was 8.883 milliunits /(ml x cell) and 8.135 milliunits /(ml x cell) and 9.605 milliunits /(ml x cell); on SCRM-FAMA heterodimer (100 µM), 8.9516 milliunits /(ml x cell) and 9.181 milliunits /(ml x cell) and 8.943 milliunits /(ml x cell). Further, the a-galactosidase on SCRM-SPCH heterodimer (10 µM) was 4.934 milliunits /(ml x cell) and 5.0596 milliunits /(ml x cell) and 4.687 milliunits /(ml x cell); on SCRM-SPCH heterodimer (50 µM) it was 4.693 milliunits /(ml x cell) and 5.268 milliunits /(ml x cell) and 5.059 milliunits /(ml x cell); on SCRM-SPCH heterodimer (100 µM), 6.071 milliunits /(ml x cell) and 5.524 milliunits /(ml x cell) and 5.145 milliunits /(ml x cell); at DB+SCRM (control yeast) (10 µM) it was 0.04682 milliunits /(ml x cell) and 0.1024 milliunits /(ml x cell) and 0.1038 milliunits /(ml x cell); on DB+SCRM (control yeast) (50 µM), 0.1114 milliunits /(ml x cell) and 0.04747 milliunits /(ml x cell) and 0.1243 milliunits /(ml x cell); at DB+SCRM (control yeast) (100 µM), 0.1293 milliunits /(ml x cell) and 0.1919 milliunits /(ml x cell) and 0.06561 milliunits /(ml x cell). In addition, the a-galactosidase at MUTE+AD (control yeast) (10 µM) is 0.05913 milliunits /(ml x cell) and 0.1128 milliunits /(ml x cell) and 0.06646 milliunits /(ml x cell); on MUTE+AD (control yeast) (50 µM), 0.06252 milliunits /(ml x cell) and 0.06546 milliunits /(ml x cell) and 0.1442 milliunits /(ml x cell); on MUTE+AD (control yeast) (100 µM) it was 0.1449 milliunits /(ml x cell) and 0.1698 milliunits /(ml x cell) and 0.1689 milliunits /(ml x cell).
